Measured values from PubChem BioAssay (NCI).
“And” between values parts separate entries of the source, which are not always exact repeats. Equal values may be shown once.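 A five-concentration, 48-hour dose response in 96-well plates underlies each endpoint, interpolated linearly between surrounding concentrations. GI50 = concentration required for 50% inhibition of growth. TGI marks complete inhibition of growth.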

Columns and labels:
Test in all cases: inhibition of tumour cell growth, NCI panel, 48 h
[1] = system: 786-0 renal
[2] = system: A498 renal
[3] = system: A549 NSCLC
[4] = system: ACHN renal
[5] = system: BT-549 breast
[6] = system: CAKI-1 renal
[7] = system: CCRF-CEM leukemia
[8] = system: COLO 205 colon
[9] = system: DU-145 prostate
[10] = system: EKVX NSCLC
[11] = system: HCC-2998 colon
[12] = system: HCT-116 colon
[13] = system: HCT-15 colon
[14] = system: HL-60(TB) leukemia
[15] = system: HOP-62 NSCLC
[16] = system: HOP-92 NSCLC
[17] = system: HS 578T breast
[18] = system: HT29 colon
[19] = system: IGROV1 ovarian
[20] = system: K-562 leukemia
[21] = system: KM12 colon
[22] = system: LOX IMVI melanoma
[23] = system: M14 melanoma
[24] = system: MALME-3M melanoma
[25] = system: MCF7 breast
[26] = system: MDA-MB-231 breast
[27] = system: MDA-MB-435
[28] = system: MDA-N
[29] = system: MOLT-4 leukemia
[30] = system: NCI-H226 lung
[31] = system: NCI-H23 lung
[32] = system: NCI-H460 lung
[33] = system: NCI-H522 lung
[34] = system: NCI/ADR-RES ovarian
[35] = system: OVCAR-3 ovarian
[36] = system: OVCAR-4 ovarian
[37] = system: OVCAR-5 ovarian
[38] = system: OVCAR-8 ovarian
[39] = system: PC-3 prostate
[40] = system: RPMI-8226 leukemia
[41] = system: RXF 393 renal
[42] = system: SF-268 CNS
[43] = system: SF-295 CNS
[44] = system: SF-539 CNS
[45] = system: SK-MEL-2 melanoma
[46] = system: SK-MEL-28 melanoma
[47] = system: SK-MEL-5 melanoma
[48] = system: SK-OV-3 ovarian
[49] = system: SN12C renal
[50] = system: SNB-19 CNS
[51] = system: SNB-75 CNS
[52] = system: SR leukemia
[53] = system: SW-620 colon
[54] = system: T-47D breast
[55] = system: TK-10 renal
[56] = system: U251 CNS
[57] = system: UACC-257 melanoma
[58] = system: UACC-62 melanoma
[59] = system: UO-31 renal

c1ccc(-c2cccc(-c3ccccn3)n2)nc1
GI50 [1]: 113 nM | TGI [1]: 2870 nM and 2030 nM | GI50 [2]: 1380 nM | TGI [2]: 2310 nM and 3270 nM | GI50 [3]: 225 nM | TGI [3]: 4910 nM and 13000 nM | GI50 [4]: 56.7 nM | TGI [4]: 1750 nM and 1890 nM | GI50 [5]: 225 nM | TGI [5]: 13600 nM | TGI [6]: 1610 nM | GI50 [7]: 58 nM | TGI [7]: > 100000 nM | GI50 [8]: 37.6 nM | TGI [8]: 1670 nM and 5840 nM | GI50 [9]: 86.3 nM | TGI [9]: 15600 nM | GI50 [10]: 111 nM | TGI [10]: 4890 nM and 10900 nM | GI50 [11]: 94.4 nM | TGI [12]: 1560 nM | GI50 [13]: 54.6 nM | TGI [13]: 1400 nM and 2980 nM | GI50 [14]: 112 nM | GI50 [15]: 130 nM | TGI [15]: 1720 nM and 12800 nM | GI50 [16]: 3570 nM | TGI [16]: 19800 nM | GI50 [17]: 2550 nM | TGI [17]: > 10000 nM and 47600 nM | GI50 [18]: 84.8 nM | TGI [18]: 3050 nM and 15700 nM | GI50 [19]: 76.5 nM | TGI [19]: 2970 nM and 11700 nM | TGI [20]: > 100000 nM | GI50 [21]: 75.1 nM | TGI [21]: 2270 nM and 13700 nM | GI50 [22]: 57.3 nM | TGI [22]: 12500 nM | GI50 [23]: 92.4 nM | TGI [23]: 434 nM and 1070 nM | TGI [24]: 1110 nM and 3480 nM | TGI [25]: > 10000 nM | GI50 [26]: 86 nM | TGI [26]: 1890 nM and 15200 nM | TGI [27]: 2280 nM and 18400 nM | TGI [28]: 2190 nM | GI50 [29]: 65.8 nM | TGI [29]: > 100000 nM | GI50 [30]: 275 nM | TGI [30]: 4850 nM | TGI [31]: > 10000 nM and 64200 nM | GI50 [32]: 60.4 nM | TGI [32]: 1350 nM and 2510 nM | TGI [33]: > 10000 nM and 19300 nM | GI50 [34]: 161 nM | TGI [34]: 1220 nM and 8760 nM | GI50 [35]: 110 nM | GI50 [36]: 83.9 nM | TGI [36]: 3480 nM and 13700 nM | GI50 [37]: 403 nM | TGI [37]: 3720 nM and 22000 nM | GI50 [38]: 145 nM | GI50 [39]: 170 nM | TGI [39]: 3760 nM and 15400 nM | TGI [40]: > 10000 nM and 95100 nM | TGI [41]: 1410 nM and 7320 nM | GI50 [42]: 81.4 nM | TGI [42]: > 10000 nM and 15800 nM | GI50 [43]: 78.5 nM | TGI [43]: 791 nM and 3870 nM | GI50 [44]: 243 nM | TGI [44]: 2070 nM and 13300 nM | GI50 [45]: 425 nM | TGI [45]: 3640 nM and 18600 nM | GI50 [46]: 182 nM | TGI [46]: 3250 nM and 15000 nM | GI50 [47]: 122 nM | TGI [47]: 680 nM and 1180 nM | GI50 [48]: 89.5 nM | TGI [48]: 2050 nM and 2420 nM | GI50 [49]: 220 nM | TGI [49]: 9770 nM and 16200 nM | GI50 [50]: 293 nM | TGI [50]: > 10000 nM and 16700 nM | GI50 [51]: 234 nM | TGI [51]: > 10000 nM and 17700 nM | GI50 [52]: 60 nM | GI50 [53]: 198 nM | TGI [53]: 4540 nM and 14000 nM | GI50 [54]: 343 nM | TGI [54]: > 10000 nM and 12700 nM | GI50 [55]: 59.5 nM | TGI [55]: 3000 nM and 7890 nM | GI50 [56]: 90.1 nM | TGI [56]: 2860 nM and 13400 nM | GI50 [57]: 337 nM | TGI [57]: 1650 nM and 5460 nM | GI50 [58]: 243 nM | TGI [58]: 2930 nM and 4240 nM | GI50 [59]: 37.3 nM | TGI [59]: 425 nM and 1290 nM
